Data taken from paper PMC6450673, “Targeted degradation of aberrant tau in frontotemporal dementia patient-derived neuronal cell models” (eLife, 2019).

How the values were obtained:
[1] = target: T1, P-tau S396 in control-1 8330–8-RC1 neurons (Homo sapiens, UniProt P10636); test: Western blot of P-tau S396 in control line 1 neurons; type: cell-based; settings: control line 1, western blot, 1 μM, 24 hr
T1 construct: modeling pathogenic tau species without the need for overexpression of heterologous genes; endogenous in cells; host or cells: 8330-8-RC1, MGH2069-RC1, CTR2-L17-RC2 human iPSC-derived neurons
T1 sequence (P10636 1-441 isoform P10636-8): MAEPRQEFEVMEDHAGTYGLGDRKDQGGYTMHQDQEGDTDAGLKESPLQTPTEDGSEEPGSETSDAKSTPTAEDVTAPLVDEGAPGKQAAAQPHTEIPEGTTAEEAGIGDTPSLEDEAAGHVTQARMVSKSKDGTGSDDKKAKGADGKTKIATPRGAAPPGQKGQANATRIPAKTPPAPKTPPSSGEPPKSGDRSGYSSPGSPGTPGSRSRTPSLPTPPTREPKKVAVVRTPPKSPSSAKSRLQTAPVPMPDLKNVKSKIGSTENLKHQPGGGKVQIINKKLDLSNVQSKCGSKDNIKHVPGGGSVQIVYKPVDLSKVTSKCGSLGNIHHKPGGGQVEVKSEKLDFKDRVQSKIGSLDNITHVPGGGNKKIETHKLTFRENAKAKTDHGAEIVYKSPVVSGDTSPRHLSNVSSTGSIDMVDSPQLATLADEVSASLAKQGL
From the text: Cells from individuals carrying the tau risk variant A152T (c.1407G > A; NCBI RefSeq NM_001123066, rs143624519), the autosomal dominant mutation P301L (c.C1907T; NCBI NM_001123066, rs63751273), or age-matched non-mutant WT tau were employed in this study (Figure 2—source data 1). Dermal fibroblasts from the tau-P301L carrier and the healthy individual were generated from a skin biopsy from subjects within the MGH Frontotemporal Disorders Unit as part of the MGH Neurodegeneration Repository. Approval for human subjects’ work was obtained under a Partners/MGH-approved IRB Protocol (#2010P001611/MGH). […]
Neurons differentiated in six-well plates for 6 weeks were washed and collected in PBS, lysed in RIPA buffer (Boston Bio-Products, Boston, MA) supplemented with 2% SDS (Sigma), protease inhibitors cocktail (Roche Complete Mini tablets, Mannheim, Germany), and phosphatase inhibitors cocktail (Sigma), followed by water sonication (Bransonic Ultrasonic Baths, Thomas Scientific, Danbury, CT) and 20,000 g centrifugation for 20 min. Supernatants were transferred to new tubes and total protein concentration was quantified with the Pierce BCA Protein Assay Kit (ThermoFisher Scientific, Carlsbad, CA). […]

[2] = target: T2, recombinant human tau Tau-441(P301L) (Homo sapiens, UniProt P10636, P618L); test: Bio-layer interferometry (BLI) biosensor assay, tau P301L; type: binding; settings: BLI steady-state analysis, immobilized biotinylated tau; Figure 1—figure supplement 1B
T2 construct: biotin (chemical label, NHS-PEG4); purchased SignalChem T08-56FN; host or cells: E. coli
T2 sequence (P10636 1-441 isoform P10636-8 P301L): as the sequence (P10636 1-441 isoform P10636-8) above, with P301L counted along it
Procedure: BLI was performed in the Octet Red384 instrument (ForteBio, Fremont CA, USA) with 1X PBS and 0.01% Brij-35 as the assay buffer. […] The biotinylated protein samples for BLI were purified in 1X phosphate buffered saline (PBS). Streptavidin (SA) sensors were used to measure the biophysical interaction between the small molecules and biotinylated tau. Prior to the initiation of BLI, the SA sensors were soaked by dipping in 200 μL of assay buffer in a 96-well Greiner Bio-One Black flat bottom plate (Greiner, Monroe NC, USA Cat.655209). The assay was performed in 80 μL volume in Greiner Bio-One 384-well black flat bottom PP plates (Greiner, Cat.781209) with an initial baseline step, followed by loading of 250 nM biotinylated tau protein. The small molecules samples and recombinant proteins were arranged in the 384-well plate according to a plate map recommended for the eight-channel mode kinetic analysis, where the sensors move from low to high concentration of small molecule samples. Subsequent steps included a second baseline (120 s), followed by association (240 s) and dissociation (240 s) cycles. […] When Req option is selected, Fortebio’s software calculates affinity constants based on the Req values determined from the curve fits. […]

O=C(CCc1ccc2c(c1)[nH]c1ccncc12)NCCOCCOCCNc1cccc2c1C(=O)N(C1CCC(=O)NC1=O)C2=O (centres unmarked) [QC-01–175]
degradation of P-tau [1]: unable to induce significant degradation | Kd [2]: 2500 nM
